Test: recombinant barcode read abundance after kanamycin selection (control-corrected) (log10(CPM+1)); higher = more efficient recombination; sequences stand for … in AGTGCAGAGAAAATCGGCCAGTTTTCTCTGCCTGCAGTCCGCATGCCGT…AGATTTATGCAGCGGACTGCCTTTCTCCCAAAGTGATAAACCGGACAGTATCATGGACCGGTTTTCCCGGTAATCCGTATTTGCAAGGTTGGTTTCACT; site = the 11-nt target
Outline: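 Values are log10(CPM+1) from a pooled E. coli screen of targets paired with IS621 bridge RNA target-binding loops. Recombination efficiency here means counts per million of recombinant-junction barcodes, averaged and control-corrected. Plates were chloramphenicol/ampicillin LB agar for the control and chloramphenicol/ampicillin/kanamycin with 0.1 mM IPTG, two replicates each.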
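Note: IS621 recombinase and bridge RNA in Escherichia coli cells.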

Row | Sequence | recombinant barcode read abundance (log10)
1 | GGGTCGGCTTGGGTTCTAACCTGTTGCGT (site GGGTCGGCTCC) | 0.076
2 | GGGTCGGCTTGGGTTCTAACCTGTTGCGT (site GGGTCGGCTGC) | 0.347
3 | GGGTCGGCTTGGGTTCTAACCTGTTGCGT (site GGGTCGGCTTC) | 0.0402
4 | GGGTCTTCTTGGGTTCTAACCTGTTGCAT (site GGGACTTCTAT) | 0.0343
5 | GGGTCTTCTTGGGTTCTAACCTGTTGCAT (site GGGCCTTCTAT) | 0.152
6 | GGGTCTTCTTGGGTTCTAACCTGTTGCAT (site GGGGCTTCTAT) | 0.0588
7 | GGGTCTTCTTGGGTTCTAACCTGTTGCAT (site GGGTCTTCTAT) | 0.575
8 | GGGTTTGCTTGGGTTCTAACCTGTTGCCT (site GAGTTTGCTAG) | 0
9 | GGGTTTGCTTGGGTTCTAACCTGTTGCCT (site GCGTTTGCTAG) | 0.0869
10 | GGGTTTGCTTGGGTTCTAACCTGTTGCCT (site GGGTTTGCTAG) | 1.14
11 | GGGTTTGCTTGGGTTCTAACCTGTTGCCT (site GTGTTTGCTAG) | 0.667
12 | GGTACTACTTGGGTTCTAACCTGTTGCAT (site CGTACTACTGT) | 0.0302
13 | GGTACTACTTGGGTTCTAACCTGTTGCAT (site GGTACTACTAT) | 0.54
14 | GGTAGATCTTGGGTTCTAACCTGTTGCTT (site GGTAGATCTAA) | 0.599
15 | GGTAGATCTTGGGTTCTAACCTGTTGCTT (site GGTAGGCCTAA) | 0.0553
16 | GGTCAAACTTGGGTTCTAACCTGTTGCCT (site GGTCAAACTAG) | 0.492
17 | GGTCAAACTTGGGTTCTAACCTGTTGCCT (site GGTCCAACTAG) | 0.0951
18 | GGTCAAACTTGGGTTCTAACCTGTTGCCT (site GGTCGAACTAG) | 0.109
19 | GGTCAAACTTGGGTTCTAACCTGTTGCCT (site GGTCTAACTAG) | 0.0309
20 | GGTCAACCTTGGGTTCTAACCTGTTGCGG (site GGTCAACCTCC) | 2.5

Row | Sequence | recombinant barcode read abundance (log10)
21 | GGTCAACCTTGGGTTCTAACCTGTTGCGG (site TACTCTTCTAG) | 0.113
22 | GGTCATACTTGGGTTCTAACCTGTTGCCT (site GGTCATACTAG) | 0.455
23 | GGTCATACTTGGGTTCTAACCTGTTGCCT (site GGTCATCCTAG) | 0.0309
24 | GGTCATACTTGGGTTCTAACCTGTTGCCT (site GGTCATGCTAG) | 0.074
25 | GGTCATACTTGGGTTCTAACCTGTTGCCT (site GGTCATTCTAG) | 0.246
26 | GGTCCTCCTTGGGTTCTAACCTGTTGCGA (site GGTCCTCCTTC) | 0.847
27 | GGTCCTCCTTGGGTTCTAACCTGTTGCGA (site TCCTAGTCTCT) | 0.229
28 | GGTCGCGCTTGGGTTCTAACCTGTTGCCT (site GGTCGAGCTAG) | 0.113
29 | GGTCGCGCTTGGGTTCTAACCTGTTGCCT (site GGTCGCGCTAG) | 0.535
30 | GGTCGCGCTTGGGTTCTAACCTGTTGCCT (site GGTCGGGCTAG) | 0.832
31 | GGTCGCGCTTGGGTTCTAACCTGTTGCCT (site GGTCGTGCTAG) | 0.0211
32 | GGTGACCCTTGGGTTCTAACCTGTTGCAT (site GGTGACCCTAT) | 2.75
33 | GGTGACCCTTGGGTTCTAACCTGTTGCAT (site TCGTGAGCTCA) | 0.97
34 | GGTGACCCTTGGGTTCTAACCTGTTGCGG (site GGTAACCCTCC) | 2.05
35 | GGTGACCCTTGGGTTCTAACCTGTTGCGG (site GGTCACCCTCC) | 0.224
36 | GGTGACCCTTGGGTTCTAACCTGTTGCGG (site GGTGACCCTCC) | 2.73
37 | GGTGACCCTTGGGTTCTAACCTGTTGCGG (site GGTTACCCTCC) | 0.33
38 | GGTGCTCCTTGGGTTCTAACCTGTTGCTT (site ATTGCTCCTAA) | 0.135
39 | GGTGCTCCTTGGGTTCTAACCTGTTGCTT (site GGTGCTCCTAA) | 0.0711
40 | GGTGGGTCTTGGGTTCTAACCTGTTGCTT (site GGTGGGTCTAA) | 1.9

Row | Sequence | recombinant barcode read abundance (log10)
41 | GGTGGGTCTTGGGTTCTAACCTGTTGCTT (site GGTGGGTCTAC) | 0.663
42 | GGTGGGTCTTGGGTTCTAACCTGTTGCTT (site GGTGGGTCTAG) | 0.929
43 | GGTGGGTCTTGGGTTCTAACCTGTTGCTT (site GGTGGGTCTAT) | 1.69
44 | GGTTAGCCTTGGGTTCTAACCTGTTGCCT (site GGTTAGCCTAG) | 0.579
45 | GGTTAGCCTTGGGTTCTAACCTGTTGCCT (site TGTTAGCCTTG) | 0.0783
46 | GGTTATCCTTGGGTTCTAACCTGTTGCGG (site GGTTATCCTCC) | 1.17
47 | GGTTATCCTTGGGTTCTAACCTGTTGCGG (site TTACGCTCTTA) | 0.0896
48 | GGTTCACCTTGGGTTCTAACCTGTTGCAG (site GGTTCACCTCT) | 1.05
49 | GGTTCACCTTGGGTTCTAACCTGTTGCAG (site GGTTGACCTAT) | 0.0489
50 | GGTTGAACTTGGGTTCTAACCTGTTGCAT (site GCTTGAACTAA) | 0.128
51 | GGTTGAACTTGGGTTCTAACCTGTTGCAT (site GGTTGAACTAT) | 0.0521
52 | GGTTGCACTTGGGTTCTAACCTGTTGCCT (site AGTTGCTCTAG) | 0.189
53 | GGTTGCACTTGGGTTCTAACCTGTTGCCT (site GGTTGCACTAG) | 0.4
54 | GTAAACTCTTGGGTTCTAACCTGTTGCCT (site GTAAACTCTAG) | 1.98
55 | GTAAACTCTTGGGTTCTAACCTGTTGCCT (site GTCAACTCTAG) | 0.0684
56 | GTAAACTCTTGGGTTCTAACCTGTTGCCT (site GTGAACTCTAG) | 0.0821
57 | GTAAACTCTTGGGTTCTAACCTGTTGCCT (site GTTAACTCTAG) | 0.427
58 | GTAAAGTCTTGGGTTCTAACCTGTTGCCA (site CTAAAGTCTTG) | 0.0579
59 | GTAAAGTCTTGGGTTCTAACCTGTTGCCA (site GTAAAGTCTTG) | 0.276
